As a reminder, the AUC(0-inf) is total exposure, with the tail of the curve extrapolated. For orientation: AUC(0-t) means exposure summed from dosing to a finite time, without extrapolation to infinity. The low end stands for less exposure, the high end for more exposure. Broadly, the Cmax is the maximum level reached in the sampled fluid or tissue. For orientation: half-life means the time needed for the level to fall by half in the phase considered. A higher half-life goes with slow loss. The term Tmax denotes the time at which the peak concentration occurs.

These results are taken from US20250011344A1 (priority 2021, published 2025).

The conditions of data set [1]: PO 2 mg/Kg, FIG. 15, time points other than the one quantified.
A short description of data set [2]: PK of psilocin after a single intravenous administration in rats. The following applies: IV 1 mg/kg nominal dose; for half-life: T½.
The mark [3] stands for this setting: psilocin in plasma, individual animal.
Where [4] appears, read: psilocin in plasma, individual animal, 1 mg/kg.

Molecules are shown by their SMILES. Where “and” joins values, the source holds several entries; their conditions need not be identical. Equal values may be shown once. Where a name gives a salt, the structure may show the parent alone.

As to `CN(C)CCc1c[nH]c2cccc(OP(=O)(OC(C)(C)C)OC(C)(C)C)c12` [Di-tert-butyl [3-[2-(dimethylamino)ethyl]-1H-indol-4-yl] phosphate HCl salt], the “Plasma concentrations of metabolite psilocin at other time points” value in data set [1] is “below limit of quantification (BLQ)”.

With `CN(C)CCc1c[nH]c2cccc(O)c12` [Psilocin, psilocin], in data set [2] (male, Sprague-Dawley, rat, plasma, iv, 1 mg/kg, AUCINF_obs, Mean of animals), the AUC(0-inf) was found to be 1580 ng·h/mL. For the same compound, in data set [2] (male, Sprague-Dawley, rat, plasma, iv, 1 mg/kg, AUClast, Mean of animals), the AUC(0-t) was found to be 1920 ng·h/mL. In data set [2] (male, Sprague-Dawley, rat, plasma, iv, 1 mg/kg, Cmax, Mean of animals), this compound had a Cmax of 1300 ng/mL. The half-life in data set [2] (male, Sprague-Dawley, rat, plasma, iv, 1 mg/kg, Mean of animals) was 28.7 min. This compound had a half-life in data set [2] (male, Sprague-Dawley, rat, plasma, iv, 1 mg/kg, individual animal) of 24.8 min. The Tlast in data set [2] (psilocin in plasma, Mean of animals) is 24.00 h. In addition, in data set [2] (setting [3]), the Tlast is 24.00 h and the Tmax is 15 min. Further, in data set [2] (setting [4]), the AUCINF_obs is 982 ng·h/mL and 3390 ng·h/mL and 368 ng·h/mL; the AUClast was 1340 ng·h/mL and 3780 ng·h/mL and 646 ng·h/mL; the Cmax was 1110 ng/mL and 2450 ng/mL and 340 ng/mL; the T½ is 21.2 min and 40.1 min.
